The numbers were not newly measured in patent US20190328829A1, “TRIPARTITE COMBINATION THERAPY FOR PROSTATE CANCER” (UNIVERSITY OF MARYLAND, BALTIMORE, priority 2016, published 2019), which cites them from elsewhere.

One data set concerns testosterone. Conditions: males, continuous administration.

As for `O=c1c(-c2ccc(O)cc2)coc2cc(O)cc(O)c12` [Genistein, 5,7-dihydroxy-3-(4-hydroxyphenyl)-chromen-4-one], the solubility in water entry was “virtually insoluble in water”. Consider `CCNC(=O)[C@@H]1CCCN1C(=O)[C@H](CCCNC(=N)N)NC(=O)[C@H](CC(C)C)NC(=O)[C@@H](CC(C)C)NC(=O)[C@H](Cc1ccc(O)cc1)NC(=O)[C@H](CO)NC(=O)[C@H](Cc1c[nH]c2ccccc12)NC(=O)[C@H](Cc1c[nH]cn1)NC(=O)[C@@H]1CCC(=O)N1` [leuprolide acetate, Leuprolide acetate], for which the “testosterone reduced to castrate levels” value with testosterone was “below 50 ng/dL”.
